From US20140303198A1, “AGENT FOR INHIBITING EXPRESSION OF NPC1L1 AND/OR LIPG MRNA AND AGENT FOR PREVENTING AND/OR TREATING OBESITY” (KOWA COMPANY, LTD., priority 2011, published 2014) come the findings set out here.

The test system of one assay is NPC1L1 mRNA. The assay is described as follows: DNA microarray gene expression profile in HepG2 cells (Test Example 2), NPC1L1. Type of assay: cell-based, human. The note with it: 24 hours, treated vs untreated cells. On the procedure:
(§1) A compound of a test compound group was added to cells of a human hepatocellular carcinoma cell line HepG2, and the cells were then cultured for 24 hours. Thereafter, the gene expression profile was measured using the DNA microarray of Agilent. Specifically, the HepG2 cells were inoculated at a concentration of 2×10^5 cells/well into a 24-well plate, and were then cultured overnight. Thereafter, Compound 2 was dissolved in dimethyl sulfoxide (DMSO) to give concentrations of 1 μM and 10 μM, whereas Anacetrapib was dissolved in DMSO to give a concentration of […]. The thus prepared solution was added to the culture fluid in an amount of 1/1000-fold of the culture fluid. The cells were cultured at 37° C. for 24 hours in a CO2 incubator. Thereafter, 500 μL of ISOGEN (Nippon Gene Co., Ltd., Catalog No. 31-02501) was added to the culture, and total RNA was then extracted. Cy3-labeled cRNA was synthesized from 200 ng of the RNA using Low Input Quick Amp Labeling Kit (Agilent, Catalog No. 5190-2308). The synthesized Cy3-labeled cRNA was hybridized to Whole Human Genome (4×44K) (Agilent, Catalog No. G4110F), using GE Hybridization Buffer HI-RPM (Agilent, Catalog No. 5190-0403). After completion of the hybridization, the DNA microarray was washed with Gene Expression Wash Buffer (Agilent, Catalog No. 5188-5327), and data were then scanned with a scanner (Agilent).
(§2) The analysis was carried out using GeneSpring (Agilent), and the change rate of the expression level of each gene was calculated.
(§3) (Change rate)=(Expression level of each gene in cells treated with compound)[…](Expression level of each gene in cells untreated with compound)

The next assay relates to LIPG mRNA. The assay is described as follows: DNA microarray gene expression profile in HepG2 cells (Test Example 2), LIPG. Type of assay: cell-based, human. The settings on record: 24 hours, treated vs untreated cells. Here is the method: as §1, §2, §3

On to `COc1cc(F)c(C(C)C)cc1-c1ccc(C(F)(F)F)cc1CN1C(=O)O[C@H](c2cc(C(F)(F)F)cc(C(F)(F)F)c2)[C@@H]1C` [Anacetrapib, (4S,5R)-5-[3,5-bis(trifluoromethyl)phenyl]-3-((4′-fluoro-5′-isopropyl-2′-methoxy-4-(trifluoromethyl)-[1,1′-biphenyl]-2-yl)methyl)-4-methyloxazolidin-2-one, reference compound], for which, in the assay with NPC1L1 mRNA (10 μM), the “Change rate (fold) of NPC1L1 expression level” value was −1.5 fold. Further, the “Change rate (fold) of LIPG expression level” value in the assay with LIPG mRNA (10 μM) is recorded as −1.9 fold.
With `CCN(C[C@H]1CC[C@H](CC(=O)O)CC1)c1ccc(C(F)(F)F)cc1CN(c1ncc(OCCS(C)(=O)=O)cn1)[C@@H](C)c1cc(C(F)(F)F)cc(C(F)(F)F)c1` [Compound 2, (S)-(−)-trans-{4-[({2-[({1-[3,5-bis(trifluoromethyl)phenyl]ethyl}{5-[2-(methylsulfonyl)ethoxy]pyrimidin-2-yl}amino)methyl]-4-(trifluoromethyl)phenyl}(ethyl)amino)methyl]cyclohexyl}ac etic acid], the “Change rate (fold) of NPC1L1 expression level” value with NPC1L1 mRNA (1 μM) is listed as −2.3 fold; in the assay with NPC1L1 mRNA (10 μM), −3.1 fold. For the same molecule, the results for the “Change rate (fold) of LIPG expression level” value in the assay on LIPG mRNA (1 μM) and in the assay with LIPG mRNA (10 μM) were −2.5 fold and −6.2 fold, respectively.
